Test system: Healthy Articular Chondrocytes (HACs)
Experiment: LPS-stimulated intracellular ROS (CM-H2DCFDA) in healthy chondrocytes
Assay type: cell-based, human
Conditions: 0.1 μM and 1 μM, 1 h pretreatment, then LPS 1 μg/ml for 48 h
Procedure: Human articular chondrocytes (HAC) were transiently transfected with a siRNA control or targeting USP16 as described in Example 2. 36 hours post knockdown, cells were stimulated with LPS 1 μg/ml) for 48 h. Healthy Articular Chondrocytes (HACs) were pretreated with 0.1- and 1-μM Compound 2 for 1 h and then stimulated with LPS (1 μg/ml) for 48 h. At the end of the treatment, fluorescent dye, CM-H2DCFDA (final concentration 10 μl of 20 μM) was added to cells and incubated for 30 min in CO2 incubator to measure the intracellular ROS produced in these cells. After incubation, the cells were washed with cold-phosphate buffered saline and the fluorescence intensity of the stained cells was measured at an excitation and emission wavelength of 485 nm and 530 nm respectively. Fluorescence intensity was then normalized for cell number using Hoechst staining.
Chondrocytes were pretreated with 0.1- and 1-μM CA for 1 h and then stimulated with LPS (1 μg/m)l for 48 h. For siRNA experiment, LPS stimulation was performed 36 hours after knockdown for additional 48 h. […] After incubation, the cells were washed with cold-phosphate buffered saline and the fluorescence intensity of the stained cells was measured at an excitation and emission wavelength of 485 nm and 530 nm respectively. Fluorescence intensity was then normalized for cell number using Hoechst staining.

In the case of `C#Cc1ccc(CNC(=O)c2cc(C(=O)CCl)cn2C)cc1` [Compound 2], the “inflammation-induced oxidative stress (intracellular ROS)” value is reported as “reduced inflammation-induced oxidative stress in healthy chondrocytes in a dose-dependent manner”.

Reference: patent publication US12606827B2, “Compounds for treatment of osteoarthritis” (Altos Labs, Inc., priority 2020, dated 2026)
